The source of these data is US8404694B2, “Aurora kinase modulators and method of use” (Amgen Inc., priority 2008, dated 2013).

In one assay the target is T1, AuroraA-TPX2 (Homo sapiens, UniProt O14965).
T1 construct: 20 μL of AuroraA-TPX2 KD GST; GST
T1 sequence (O14965 133-383 limits assumed): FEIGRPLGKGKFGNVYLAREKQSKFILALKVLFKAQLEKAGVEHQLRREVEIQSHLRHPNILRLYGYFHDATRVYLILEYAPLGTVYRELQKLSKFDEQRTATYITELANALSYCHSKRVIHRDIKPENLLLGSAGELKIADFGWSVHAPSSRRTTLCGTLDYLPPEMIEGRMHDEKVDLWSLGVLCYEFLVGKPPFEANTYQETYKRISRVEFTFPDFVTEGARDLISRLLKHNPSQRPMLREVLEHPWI
T1 sequence (Q9ULW0 1-747 partner): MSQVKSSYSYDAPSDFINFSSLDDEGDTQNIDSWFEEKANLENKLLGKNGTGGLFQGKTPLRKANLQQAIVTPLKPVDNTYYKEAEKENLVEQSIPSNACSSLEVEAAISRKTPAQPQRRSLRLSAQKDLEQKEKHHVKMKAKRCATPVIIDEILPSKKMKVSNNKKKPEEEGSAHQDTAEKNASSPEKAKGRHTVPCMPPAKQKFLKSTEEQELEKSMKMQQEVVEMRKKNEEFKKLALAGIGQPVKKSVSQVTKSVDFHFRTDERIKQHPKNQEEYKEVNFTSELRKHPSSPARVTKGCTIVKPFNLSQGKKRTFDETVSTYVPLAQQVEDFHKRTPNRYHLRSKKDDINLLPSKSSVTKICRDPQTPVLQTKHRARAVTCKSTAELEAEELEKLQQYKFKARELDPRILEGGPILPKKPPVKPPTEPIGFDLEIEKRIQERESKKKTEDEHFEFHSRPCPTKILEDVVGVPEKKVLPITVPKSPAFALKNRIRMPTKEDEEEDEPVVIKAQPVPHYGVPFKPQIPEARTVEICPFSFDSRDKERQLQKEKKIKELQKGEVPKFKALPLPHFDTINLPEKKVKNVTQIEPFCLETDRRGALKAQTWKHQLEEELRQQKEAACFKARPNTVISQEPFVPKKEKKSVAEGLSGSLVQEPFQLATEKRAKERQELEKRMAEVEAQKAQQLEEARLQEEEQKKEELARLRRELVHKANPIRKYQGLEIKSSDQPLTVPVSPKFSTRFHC
The assay is described as follows: AuroraA-TPX2 Homogeneous Time Resolved Fluorescent (HTRF) kinase assay. In kind it is biochemical. The conditions noted are these: ATP about 1 μM, biotinylated PLK peptide, read-out: AurA_IC50—IP (Avg). The protocol: AuroraA-TPX2-Homogeneous Time Resolved Fluorescent (HTRF) Kinase Assay:
The Aurora-A HTRF assay begins with Aurora-A in the presence of ATP phosphorylating the biotinylated peptide PLK. The reaction incubates for about 120 min. Detection reagents are added to quench the reaction. These agents stop the reaction by diluting out the enzyme and chelating the metals due to the presence of EDTA. After addition, the assay is incubated overnight to allow the detection reagents to equilibrate.
The AuroraA HTRF assay comprises 1 μL of compound in 100% DMSO, 20 μL of ATP and biotinylated PLK, and 20 μL of AuroraA-TPX2 KD GST for a final volume of about 41 μL. The final concentration of PLK is about 1 μM. The final concentration of ATP is about 1 μM (Km(app)=1 μM+/−0.1) and the final concentration of AuroraA is about 5 nM. Buffer conditions are as follows: 60 mM HEPES pH 7.5, 25 mM NaCl, 10 mM MgCl, 2 mM DTT, 0.05% BSA.
The assay is quenched and stopped with 160 μL of detection reagent. Detection reagents are as follows: Buffer made of 50 mM Tris, pH 7.5, 100 mM NaCl, 3 mM EDTA, 0.05% BSA, 0.1% Tween20. Added to this buffer prior to reading is Steptavidin allophycocyanin (SA-APC) at a final conc in the assay of 0.0005 mg/mL, and europilated anti-phosphoPLK Ab (Eu-anti-PLK) at a final conc of 0.02 nM.
The assay plate is read in either a Discovery or a RubyStar. The eu-anti-PLK is excited at 320 nm and emits at 615 nm to excite the SA-APC which in turn emits at 655 nm. The ratio of SA-APC at 655 nm (excited due to close proximity to the Eu-anti-PLK because of phosphorylation of the peptide) to free Eu-anti-PLK at 615 nm will give substrate phosphorylation.
(§1) Many of the Examples described herein were tested, and found to be active compounds. Table I includes related biological data, which may be interpreted using the activity gauge below: […]
A general note: In TR-FRET formats the signal depends on donor and acceptor labels being close together.

For the next assay, the target named is T2, AuroraB (Homo sapiens, UniProt Q96GD4).
T2 construct: 20 μL of AuroraB FL His; His
T2 sequence (Q96GD4 whole entry): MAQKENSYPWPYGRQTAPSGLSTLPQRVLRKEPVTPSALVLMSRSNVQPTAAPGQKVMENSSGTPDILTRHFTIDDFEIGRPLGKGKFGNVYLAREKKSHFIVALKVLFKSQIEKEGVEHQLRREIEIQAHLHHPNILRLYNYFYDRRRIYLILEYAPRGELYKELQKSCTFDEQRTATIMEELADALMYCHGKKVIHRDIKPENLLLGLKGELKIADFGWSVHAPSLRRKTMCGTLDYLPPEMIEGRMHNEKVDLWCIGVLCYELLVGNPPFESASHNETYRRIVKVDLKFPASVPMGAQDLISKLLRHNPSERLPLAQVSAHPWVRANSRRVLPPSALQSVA
The assay is described as follows: AuroraB Homogeneous Time Resolved Fluorescent (HTRF) kinase assay. The format is biochemical. Conditions: ATP 23 μM, biotinylated Histone H3 peptide, read-out: AurB_IC50—IP (Avg). The protocol:
AuroraB-Homogeneous Time Resolved Fluorescent (HTRF) Kinase Assay:
The AuroraB HTRF assay begins with AuroraB in the presence of ATP phosphorylating the biotinylated peptide Histone H3. The reaction incubates for about 90 min. the reaction is quenched by addition of detection reagents, which stop the reaction by diluting out the enzyme and chelating the metals due to the presence of EDTA. After addition, the assay is incubated for about 60 min to allow detection reagents to equilibrate.
The AuroraB HTRF assay comprises 1 μL of compound in 100% DMSO, 20 μL of ATP and biotinylated Histone H3, and 20 μL of AuroraB FL His for a final volume of 41 μL. The final concentration of Histone H3 is 0.1 μM. The final concentration of ATP is 23 μM (Km(app)=23 μM+/−2.6) and the final concentration of AuroraB is 400 pM. Buffer conditions are as follows: 50 mM HEPES pH 7.5, 5 mM NaCl, 0.5 mM MgCl, 0.5 mM MnCl, 2 mM DTT, 0.05% BSA.
The assay is quenched and stopped with 160 μL of detection reagent. Detection reagents are as follows: Buffer made of 50 mM Tris, pH 7.5, 100 mM NaCl, 3 mM EDTA, 0.05% BSA, 0.1% Tween20. Added to this buffer prior to reading is Steptavidin allophycocyanin (SA-APC) at a final conc in the assay of 0.001 mg/mL, and europilated anti-phosphoHistoneH3 Ab (Eu-anti-His H3) at a final conc of 0.064 nM.
The assay plate is read in either a Discovery or a RubyStar. The eu-anti-His H3 is excited at 320 nm and emits at 615 nm to excite the SA-APC which in turn emits at 655 nm. The ratio of SA-APC at 655 nm (excited due to close proximity to the Eu-anti-His H3 because of phosphorylation of the peptide) to free Eu-anti-His H3 at 615 nm will give substrate phosphorylation.
as §1

In another assay the test system is HeLa cells. The assay is described as follows: HeLa cell 24 hr ploidy assay. Conditions: Homo sapiens, 24 hrs treatment, DNA content (ploidy), read-out: 24 h_4N Ploidy EC50—IP (Avg). In kind it is cell-based. The protocol: HeLa Cell 24 hr Ploidy Assay Protocol
The purpose of this assay is to evaluate the ability of selected individual compounds to induce Deoxyribonucleic acid (DNA) content (ploidy) in cells thought failed cell division. Cell cycle analysis is a rapid and efficient way to evaluate the status of DNA content (ploidy) of a given cell. HeLa cells (1×10^4 HeLa cells/well) in 100 ul of media (MEM+10% FBS) were plated in 96-well plates (Packard View) and cultured for 24 hrs at 37° C. maintained in a 5% CO2 atmosphere. The following day, cells were treated for 24 hrs with inhibitor compounds (10 pt. Dose ranging from 0.0024-1.25 umol/L). The compounds were serially diluted in DMSO (0.25% final concentration). The cells were fixed (3.7% Formaldehyde and 1% glutaraldehyde) and permeabilized (1×PBS with 1% BSA and 0.2% Triton X-100) in preparation for nuclear staining. The well plates were stained for 45 minutes at RT in the dark using Hoechest 33342 nuclear stain at 0.5 ug·ml (Stock of 10 mg/ml, Invitrogen, CA, Cat # H3570). The nuclear stain was removed by aspiration and the cells were washed with wash buffer. A Cellomics Array Scan Vti plate reader was used to acquire the DNA ploidy data of the cells using Cell Cycle bioapplication. Numbers for each of “valid cell count/well”, “% of 4N cells” and “% of >4Ncells” were calculated with the assistance of an Activity Base 5.1ca software and dose curves were generated using an XLFit software. With XLFit, final EC50 IP and EC50 transit values, as well as the Max and Min, were calculated for each curve. Many of the Examples described herein were tested, and fund to be active compounds. Table I includes related biological data in the 24 h cell-ploidy content assay, which may be interpreted using the activity gauge below: […]

The term EC50 denotes the midpoint of the concentration-response curve. With `COCCOc1cc2nccc(Sc3ccc(Nc4nnc(-c5cc(C)cs5)c5ccccc45)cc3)n2n1` [Example 28, N-(4-((2-((2-(methyloxy)ethyl)oxy)pyrazolo[1,5-a]pyrimidin-7-yl)thio)phenyl)-4-(4-methyl-2-thienyl)-1-phthalazinamine], the IC50 at AuroraA-TPX2 and on AuroraB was less than 0.1 µM each time. Besides, the EC50 with HeLa cells was less than 0.1 µM.
Consider `COCCOc1cc2nccc(Sc3ccc(Nc4nnc(-c5ccccc5)c5ccccc45)cc3)n2n1` [Example 27, N-(4-((2-((2-(methyloxy)ethyl)oxy)pyrazolo[1,5-a]pyrimidin-7-yl)thio)phenyl)-4-phenyl-1-phthalazinamine], for which the IC50 at AuroraA-TPX2 was 0.1 to 0.5 µM; at AuroraB, less than 0.1 µM. Also, the EC50 in the assay with HeLa cells was less than 0.1 µM.
On to `Clc1ccn2ncnc(Sc3ccc(Nc4nnc(-c5ccccc5)c5ccccc45)cc3)c12` [Example 29, N-(4-((5-chloropyrrolo[2,1-f][1,2,4]triazin-4-yl)thio)phenyl)-4-phenyl-1-phthalazinamine], for which the IC50 at AuroraA-TPX2 is greater than 2.5 µM; at AuroraB, less than 0.1 µM. In addition, the EC50 in the assay on HeLa cells lay in the range of 0.1 to 0.5 µM.
For `COCCOc1cc2nccc(Sc3ccc(Nc4nnc(-c5ccc(Cl)cc5)c5ccccc45)cc3)n2n1` [Example 6, 4-(4-Chlorophenyl)-N-(4-(2-(2-methoxyethoxy)pyrazolo[1,5-a]pyrimidin-7-ylthio)phenyl)phthalazin-1-amine] the same measures were less than 0.1 µM, less than 0.1 µM and less than 0.1 µM.
For `Oc1cc2nccc(Sc3ccc(Nc4nnc(-c5ccc(Cl)cc5)c5ccccc45)cc3)n2n1` [Example 5, 7-(4-(4-(4-Chlorophenyl)phthalazin-1-ylamino)phenylthio)pyrazolo[1,5-a]pyrimidin-2-ol] the same measures were less than 0.1 µM, less than 0.1 µM and 0.1 to 0.5 µM.
